# Results from patent US20100285959A1, “HERBICIDAL MIXTURES” (priority 2006, published 2010).
# How the values were obtained:
# [1] = test system: field pennycress (THLAR); assay: Test 5 field trial, postemergence; type: in vivo, Thlaspi arvense
# From the text: Corn seeds (hybrid ‘Pioneer 38H69’) were planted in mid spring season, 5.1 cm deep in a silty clay loam soil having 3% organic matter and a pH of 6.5. Plots were 9.1 m long by 3.0 m wide with rows spaced 76 cm apart. The field was managed using conventional tillage practices. […] All treatments included a surfactant except glufosinate treatments, both alone and in combination. […] Results are summarized in Table 5 and are the means of the three replicates.
# [2] = test system: redroot pigweed (AMARE); assay: Test 1 field trial, preemergence; type: in vivo, Amaranthus retroflexus
# From the text: (§1) Corn seeds (hybrid ‘Pioneer 34N43’) were planted in mid spring season, 3.8 cm deep in a silt loam soil having 4.6% organic matter and a pH of 6. Plots were 10.7 m long by 1.5 m wide with rows spaced 76 cm apart. Seeds were spaced 18 cm apart within the rows. The field was managed using conventional tillage practices. […] Results are summarized in Table 1 and are the means of the three replicates. […] Colby's Equation (Colby, S. R. “Calculating Synergistic and Antagonistic Responses of Herbicide Combinations,” Weeds, 15(1), pp 20-22 (1967)) calculates the expected additive effect of herbicidal mixtures, and for two active ingredients is of the form:
# (§2) Pa+b=Pa+Pb−(PaPb/100) • wherein Pa+b is the percentage effect of the mixture expected from additive contribution of the individual components, • Pa is the observed percentage effect of the first active ingredient at the same use rate as in the mixture, and • Pb is the observed percentage effect of the second active ingredient at the same use rate as in the mixture.
# [3] = test system: velvetleaf (ABUTH); assay: Test 1 field trial, preemergence; type: in vivo, Abutilon theophrasti
# From the text: as §1, §2
# [4] = test system: field pennycress (THLAR); assay: Test 1 field trial, preemergence; type: in vivo, Thlaspi arvense; conditions: 28 DAA
# From the text: as §1, §2
# [5] = test system: giant foxtail (SETFA); assay: Test 8 field trial, preemergence; type: in vivo, Setaria faberi
# From the text: (§3) Corn seeds (hybrid ‘Pioneer 31G96’) were planted in mid spring season, 3.8 cm deep in a clay loam soil having 2% organic matter and a pH of 6.6. Plots were 6.1 m long by 3.0 m wide with rows spaced 76 cm apart. Seeds were spaced 15 cm apart within the rows. The field was managed using conventional tillage practices. […] A few of the weed species could not be evaluated at every timing. […] Results are the means of the three replicates.
# [6] = test system: giant foxtail (SETFA); assay: Test 1 field trial, preemergence; type: in vivo, Setaria faberi
# From the text: as §1, §2
# [7] = test system: Surinam grass (BRADC); assay: Test 11 field trial, preemergence; type: in vivo, Brachiaria decumbens; design: scale not given here; conditions: alone or + atrazine 1500 or metolachlor 2500
# From the text: (§4) Corn seeds (hybrid ‘Pioneer 3041’) were planted in mid spring season, 5 cm deep in a clay soil having 2.6% organic matter and a pH of 5.6. Plots were 8 m long by 1.5 m wide with rows spaced 80 cm apart. Seeds were spaced 15 cm apart within the rows. The field was managed using conventional tillage practices. […] Treatments consisted of Compound 2 or
# (§5) Goosegrass was not evaluated 16 or 91 days after application.
# [8] = test system: common ragweed (AMBEL); assay: Test 10 field trial, preemergence; type: in vivo, Ambrosia artemisiifolia; conditions: 28 DAA
# From the text: (§6) Corn seeds (hybrid ‘Pioneer 33P65 RR’) were planted in mid spring season, 2.5 cm deep in a silt loam soil. Plots were 9.1 m long by 3.0 m wide with rows spaced 76 cm apart. The field was managed using conventional tillage practices. […] Results are the means of the three replicates.
# [9] = test system: tropical spiderwort (COMBE); assay: Test 11 field trial, preemergence; type: in vivo, Commelina benghalensis; design: scale not given here; conditions: alone or + atrazine 1500 or metolachlor 2500
# From the text: as §4, §5
# [10] = test system: ivyleaf morningglory (IPOHE); assay: Test 8 field trial, preemergence; type: in vivo, Ipomoea hederacea
# From the text: as §3
# [11] = test system: corn (ZEAMD); assay: Test 6 field trial, postemergence; type: in vivo, Zea mays ssp. indentata; conditions: hybrid Pioneer 35Y62, corn (Zea mays ssp. indentata), in vivo
# From the text: (§7) Corn seeds (hybrid ‘Pioneer 35Y62’) were planted in mid spring season, 3.8 cm deep in a silt loam soil having 4% organic matter and a pH of 5.8. Plots were 10.7 m long by 1.5 m wide with rows spaced 76 cm apart. Seeds were spaced 18 cm apart within the rows. The field was managed using conventional tillage practices. […] All treatments included a surfactant except glufosinate treatments, both alone and in combination. […] Results are summarized in Table 6 and are the means of the three replicates.
# [12] = test system: Pennsylvania smartweed (POLPY); assay: Test 6 field trial, postemergence; type: in vivo, Polygonum pensylvanicum
# From the text: as §7
# [13] = test system: common ragweed (AMBEL); assay: Test 8 field trial, preemergence; type: in vivo, Ambrosia artemisiifolia
# From the text: as §3
# [14] = test system: common cocklebur (XANST); assay: Test 10 field trial, preemergence; type: in vivo, Xanthium strumarium ssp. strumarium; conditions: 28 DAA
# From the text: as §6
# [15] = 28 DAA, g a.i./ha: Cpd 2 50, S-Metolachlor 1870
# [16] = 28 DAA, g a.i./ha: Cpd 2 100, Atrazine 1680, S-Metolachlor 1870
# [17] = 28 DAA, g a.i./ha: Cpd 2 150, S-Metolachlor 1870
# [18] = 56 DAA, g a.i./ha: Cpd 2 50, S-Metolachlor 1870
# [19] = 56 DAA, g a.i./ha: Cpd 2 100, Atrazine 1680, S-Metolachlor 1870
# [20] = 56 DAA, g a.i./ha: Cpd 2 150, S-Metolachlor 1870
# [21] = g a.i./ha: Cpd 2 50, S-Metolachlor 1870
# [22] = g a.i./ha: Cpd 2 100, Atrazine 1680, S-Metolachlor 1870
# [23] = g a.i./ha: Cpd 2 150, S-Metolachlor 1870
# [24] = 19 DAA, g a.i./ha: Cpd 2 50, S-Metolachlor 1870
# [25] = 19 DAA, g a.i./ha: Cpd 2 100, Atrazine 1680, S-Metolachlor 1870
# [26] = 19 DAA, g a.i./ha: Cpd 2 150, S-Metolachlor 1870
# [27] = 29 DAA, g a.i./ha: Cpd 2 50, S-Metolachlor 1870
# [28] = 29 DAA, g a.i./ha: Cpd 2 100, Atrazine 1680, S-Metolachlor 1870
# [29] = 29 DAA, g a.i./ha: Cpd 2 150, S-Metolachlor 1870
# [30] = 16 DAA, Cpd 2/Cpd 1 at 62 g a.i./ha
# [31] = 16 DAA, Cpd 2/Cpd 1 at 125 g a.i./ha
# [32] = 30 DAA, Cpd 2/Cpd 1 at 62 g a.i./ha
# [33] = 30 DAA, Cpd 2/Cpd 1 at 125 g a.i./ha
# [34] = 44 DAA, Cpd 2/Cpd 1 at 62 g a.i./ha
# [35] = 44 DAA, Cpd 2/Cpd 1 at 125 g a.i./ha
# [36] = 62 DAA, Cpd 2/Cpd 1 at 62 g a.i./ha
# [37] = 62 DAA, Cpd 2/Cpd 1 at 125 g a.i./ha
# [38] = 91 DAA, Cpd 2/Cpd 1 at 62 g a.i./ha
# [39] = 91 DAA, Cpd 2/Cpd 1 at 125 g a.i./ha
structure (smiles),measurement,setting,value
"COC(=O)c1nc(C2CC2)nc(N)c1Cl [Compound 2, methyl 6-amino-5-chloro-2-cyclopropyl-4-pyrimidinecarboxylate]",THLAR Obs,"[1]; 16 DAA, Cpd 2 30 g a.i./ha alone or with glufosinate 470 or glyphosate 1120",37%
same,THLAR Obs,"[1]; 16 DAA, Cpd 2 60 g a.i./ha alone or with atrazine 1120, glufosinate 470 or glyphosate 1120",42%
same,THLAR Obs,"[1]; 31 DAA, Cpd 2 30 g a.i./ha alone or with glufosinate 470 or glyphosate 1120",0%
same,THLAR Obs,"[1]; 31 DAA, Cpd 2 60 g a.i./ha alone or with atrazine 1120, glufosinate 470 or glyphosate 1120",2%
same,AMARE Obs,[2]; [15],0
same,AMARE Obs,[2]; [16],7
same,AMARE Obs,[2]; [17],58
same,AMARE Obs,[2]; [18],7
same,AMARE Obs,[2]; [19],55
same,AMARE Obs,[2]; [20],100
same,ABUTH Obs,[3]; [15],0
same,ABUTH Obs,[3]; [16],0
same,ABUTH Obs,[3]; [17],0
same,ABUTH Obs,[3]; [18],0
same,ABUTH Obs,[3]; [19],0
same,ABUTH Obs,[3]; [20],10
same,THLAR Obs,[4]; [21],0
same,THLAR Obs,[4]; [22],0
same,THLAR Obs,[4]; [23],7
same,SETFA Obs,[5]; [24],33%
same,SETFA Obs,[5]; [25],40%
same,SETFA Obs,[5]; [26],43%
same,SETFA Obs,[5]; [27],32%
same,SETFA Obs,[5]; [28],42%
same,SETFA Obs,[5]; [29],47%
same,SETFA Obs,[5]; [18],8%
same,SETFA Obs,[5]; [19],7%
same,SETFA Obs,[5]; [20],17%
same,SETFA Obs,[6]; [15],0
same,SETFA Obs,[6]; [16],0
same,SETFA Obs,[6]; [17],0
same,SETFA Obs,[6]; [18],0
same,SETFA Obs,[6]; [19],0
same,SETFA Obs,[6]; [20],0
same,BRADC Obs,[7]; [30],40
same,BRADC Obs,[7]; [31],60
same,BRADC Obs,[7]; [32],40
same,BRADC Obs,[7]; [33],70
same,BRADC Obs,[7]; [34],0
same,BRADC Obs,[7]; [35],60
same,BRADC Obs,[7]; [36],0
same,BRADC Obs,[7]; [37],0
same,BRADC Obs,[7]; [38],0
same,BRADC Obs,[7]; [39],0
same,AMBEL Obs,[8]; [21],5%
same,AMBEL Obs,[8]; [22],5%
same,AMBEL Obs,[8]; [23],20%
same,COMBE Obs,[9]; [30],40
same,COMBE Obs,[9]; [31],60
same,COMBE Obs,[9]; [32],40
same,COMBE Obs,[9]; [33],60
same,COMBE Obs,[9]; [34],40
same,COMBE Obs,[9]; [35],60
same,COMBE Obs,[9]; [36],0
same,COMBE Obs,[9]; [37],40
same,COMBE Obs,[9]; [38],0
same,COMBE Obs,[9]; [39],40
same,IPOHE Obs,[10]; [24],58%
same,IPOHE Obs,[10]; [25],78%
same,IPOHE Obs,[10]; [26],83%
same,IPOHE Obs,[10]; [27],72%
same,IPOHE Obs,[10]; [28],97%
same,IPOHE Obs,[10]; [29],96%
same,IPOHE Obs,[10]; [18],82%
same,IPOHE Obs,[10]; [19],100%
same,IPOHE Obs,[10]; [20],100%
same,ZEAMD Obs,[11]; 14 days after application,0%
same,ZEAMD Obs,[11]; 28 days after application,0%
same,POLPY Obs,"[12]; 14 DAA, 30 g a.i./ha",20%
same,POLPY Obs,"[12]; 14 DAA, 60 g a.i./ha",40%
same,POLPY Obs,"[12]; 28 DAA, 30 g a.i./ha",20%
same,POLPY Obs,"[12]; 28 DAA, 60 g a.i./ha",40%
same,AMBEL Obs,[13]; [24],36%
same,AMBEL Obs,[13]; [25],73%
same,AMBEL Obs,[13]; [26],83%
same,AMBEL Obs,[13]; [27],65%
same,AMBEL Obs,[13]; [28],88%
same,AMBEL Obs,[13]; [29],96%
same,AMBEL Obs,[13]; [18],52%
same,AMBEL Obs,[13]; [19],90%
same,AMBEL Obs,[13]; [20],97%
same,XANST Obs,[14]; [21],10%
same,XANST Obs,[14]; [22],7%
same,XANST Obs,[14]; [23],27%
